Source: US6639130B2, “Plant sterol reductases and uses thereof” (The General Hospital Corporation, priority 1996, dated 2003)
Entries after “also recorded” stand apart in the source; their conditions may differ.

Assays:
wild-type seedlings = assay: Treatment of wild-type seedlings with synthetic cytokinin (phenocopy of ell mutant morphology); type: in vivo, Arabidopsis; settings: 30 μM; in the dark or light
Excerpt: From left to right in both FIGS. 1A-1B: wild-type plant; wild-type plant+2ip; ell; and ell+2ip.

ell seedlings = assay: Exogenous feeding of brassinolide to ell seedlings germinated on agar plates; type: in vivo, Arabidopsis; settings: 1 μM in growth medium (agar plates); dark or light
Method: FIGS. 13A-13B are photographs showing that the ell phenotype was not corrected by exogenous feeding of brassinolide (1 μM) in either dark (FIG. 13A) or light (FIG. 13B). From left to right in FIGS. 13A-13B: wild-type; ell; wild-type+brassinolide; and ell+brassinolide.
To determine whether the ell mutant phenotype is corrected by exogenous feeding of brassinolide, we germinated ell seedlings on agar plates containing 1 μM brassinolide or 1 μM 24-epibrassinolide (Li et al., Science 272: 398, 1996). […] Thus, it appears that steroid compounds other than BRs are needed to restore an ell mutant to a normal growth and development phenotype, as reflected by the pleiotropic phenotypes such as stunted roots (FIG. 2) and impaired embryogenesis (FIGS. 7A-7F).

## CC(C)=CCNc1ncnc2nc[nH]c12 [2ip, dimethylallylamino-purine]
wild-type seedlings
  ell mutant seedling morphology phenocopied in wild-type seedlings: phenocopied

## CC(C)[C@@H](C)[C@@H](O)[C@H](O)[C@@H](C)[C@H]1CC[C@H]2[C@@H]3COC(=O)[C@H]4C[C@H](O)[C@H](O)C[C@]4(C)[C@H]3CC[C@]12C [24-epibrassinolide]
Ell seedlings
  correction of the ell mutant phenotype by exogenous feeding: did not alter the mutant phenotype

## CC(C)[C@H](C)[C@@H](O)[C@H](O)[C@@H](C)[C@H]1CC[C@H]2[C@@H]3COC(=O)[C@H]4C[C@H](O)[C@H](O)C[C@]4(C)[C@H]3CC[C@]12C [brassinolide]
Ell seedlings
  correction of the ell mutant phenotype by exogenous feeding: not corrected; also recorded: did not alter the mutant phenotype
